# Legend:
# [1] = Toxicity after 3-week chronic treatment (organ pathology, complete blood count); format: in vivo, mice
# Protocol: To explore whether 4′-dimethylamino-7,8-dihydroxyflavone and 7,8-dihydroxyflavone have any intolerable toxicity, the major organs from mice treated with both compounds at 5 mg/kg/day for 3 weeks were analyzed.
# KA-provoked apoptosis = assay: KA-provoked neuronal cell death in TrkB F616A knockin mice, intraperitoneal (caspase-3 immunoblot); format: in vivo
# Protocol: To determine if 1NMPP1 would make neurons treated with 7,8-dihydroxyflavone vulnerable to KA-provoked neuronal cell death, TrkF616A knockin mice were fed with 1NMPP1 (25 mM) in drinking water one day prior to pharmacological reagent treatment. The next day, the mice were intraperitoneally injected with KA (25 mg/kg), or 7,8-dihydroxyflavone (5 mg/kg) 4 hours prior to KA injection. The control mice were injected with either KA or 7,8-dihydroxyflavone alone, or the mice were administered 7,8-dihydroxyflavone 4 hours before KA. In 4 days, the mice were sacrificed and the brains were homogenated and ultracentrifuged. The supernatant was employed for SDS-PAGE and immunoblotting analysis.
# GST-TrkB ICD = GST-TrkB ICD (Rattus norvegicus, UniProt Q63604); assay: In vitro binding assay with immobilized GST-TrkB ICD on glutathione beads, UV-spectrometry of eluate; conditions: 500 nM, 4° C., 30 minutes, FIG. 17
# Chain of GST-TrkB ICD (Q63604 454-821): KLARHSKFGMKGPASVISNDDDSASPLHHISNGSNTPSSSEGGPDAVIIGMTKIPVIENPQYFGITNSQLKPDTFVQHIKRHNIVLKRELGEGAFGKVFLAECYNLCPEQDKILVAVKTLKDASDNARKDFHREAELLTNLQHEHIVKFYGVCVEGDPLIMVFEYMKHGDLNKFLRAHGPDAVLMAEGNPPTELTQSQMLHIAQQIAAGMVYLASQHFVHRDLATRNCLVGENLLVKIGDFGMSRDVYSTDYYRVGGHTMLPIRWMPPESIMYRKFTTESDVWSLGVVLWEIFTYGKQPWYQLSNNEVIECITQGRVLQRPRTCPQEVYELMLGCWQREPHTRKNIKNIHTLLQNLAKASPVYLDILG
# Protocol: To further explore the association of 7,8-dihydroxyflavone and the TrkB receptor, an in vitro binding assay was performed. Increasing volumes of GST-TrkB ECD and GST-TrkB ICD were bound to glutathione beads to a total of 250 uL, and 500 nM 7,8-dihydroxyflavone in 250 μl (20% DMSO/80% PBS) was incubated with the beads in the column at 4° C. for 30 minutes. After the incubation, the elute fractions were collected and the concentration of eluted 7,8-dihydroxyflavone was analyzed by UV-spectrometry at a wavelength of 410 nm.
# TrkB = TrkB (Rattus norvegicus, UniProt Q63604); assay: Immunofluorescent staining of hippocampal neurons with anti-phospho TrkB antibody; format: cell-based; design: endogenous in cells; host or cells: primary hippocampal neurons; conditions: 1 μM, 30 minutes, FIG. 8
# Chain of TrkB (Q63604 32-821): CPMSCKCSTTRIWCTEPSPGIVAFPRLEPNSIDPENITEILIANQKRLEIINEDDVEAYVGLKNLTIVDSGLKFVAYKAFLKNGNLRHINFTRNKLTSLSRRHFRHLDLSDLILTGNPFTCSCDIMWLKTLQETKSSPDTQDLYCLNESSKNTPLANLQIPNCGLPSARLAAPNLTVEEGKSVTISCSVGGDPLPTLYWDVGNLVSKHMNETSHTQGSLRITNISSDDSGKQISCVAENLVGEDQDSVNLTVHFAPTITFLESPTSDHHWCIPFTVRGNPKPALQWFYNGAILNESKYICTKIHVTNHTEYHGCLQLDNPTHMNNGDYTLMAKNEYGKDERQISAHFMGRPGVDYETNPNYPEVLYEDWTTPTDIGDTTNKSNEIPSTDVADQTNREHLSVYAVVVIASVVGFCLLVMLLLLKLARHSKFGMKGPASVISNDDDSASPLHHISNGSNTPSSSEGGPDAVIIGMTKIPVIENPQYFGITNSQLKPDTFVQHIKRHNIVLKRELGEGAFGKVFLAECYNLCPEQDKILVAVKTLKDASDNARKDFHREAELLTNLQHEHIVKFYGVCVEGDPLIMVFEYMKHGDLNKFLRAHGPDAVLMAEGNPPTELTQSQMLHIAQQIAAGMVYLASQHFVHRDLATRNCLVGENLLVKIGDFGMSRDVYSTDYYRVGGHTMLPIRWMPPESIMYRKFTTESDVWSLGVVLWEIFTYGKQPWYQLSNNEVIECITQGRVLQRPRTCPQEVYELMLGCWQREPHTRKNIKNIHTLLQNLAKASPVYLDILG
# Protocol: Primary hippocampal neurons were seeded on poly-L lysine coated coverslips in a 12-well plate. After 7 days in vitro, the neurons were treated with 100 ng/ml BDNF or variety of flavone compounds (1 μM) for 30 minutes, and then washed with PBS. Cells were fixed with 3% formaldehyde in PBS at room temperature for 10 minutes. The cells were then permeabilized and blocked by 0.4% Triton X-100 and 2% FBS in PBS at room temperature for 15 minutes, washed with PBS three times and treated with anti-MAP2 (1:200) and anti-phospho-TrkB antibodies (1:500). After staining with FITC- or Rhodamine-conjugated secondary antibody, the coverslips were mounted on slides. Fluorescent images were taken by OLYMPUS IX71 fluorescence microscope (Olympus; Center Valley, Pa.).
# BDNF binding to TrkB induces its autophosphorylation and, subsequently, activation of downstream kinase pathways including MAPK and PI3/Akt. To explore whether 7,8-dihydroxyflavone triggers TrkB activation, immunofluorescent staining on hippocampal neurons with anti-phospho TrkB antibody was conducted.
# [2] = system: KA-induced neuronal apoptosis; assay: Kainic acid time course assay, oral TrkB agonists (caspase-3 immunoblot of brain lysates); format: in vivo, C57BL/6J mice; conditions: 1 mg/kg orally, KA 20 mg/kg i.p., FIG. 30 right
# Protocol: Male C57BL/6 mice age 60 days were orally injected with a single dose of 4′-DMA-7,8-DHF or 7,8-DHF (1 mg/kg each). KA (20 mg/kg) was i.p. injected. Animals were continually monitored for 2 hours for the onset of seizure activity. At 0, 4 and 8 hours following TrkB agonist treatment, the animals were sacrificed and the brain lysates were analyzed by immunoblotting with p-TrkB-Y817, active caspase-3 and total TrkB antibodies.
# To investigate whether these compounds exert any neuroprotective effects in animals, a time course assay was conducted.
# [3] = system: progenitor proliferation in hippocampus; assay: Neurogenesis analysis in hippocampus (BrdU); format: in vivo, C57BL/6J mice; conditions: 5 mg/kg daily for 21 days, compared to vehicle control, FIGS. 32 and 33
# Protocol: Adult male mice (2-3 months old) were orally injected with saline, 4′-DMA-7,8-DHF and 7,8-DHF (5 mg/kg) for 21 days. Then BrdU (50 mg/kg) was i.p. injected. In 2 hours, the mice were perfused with 4% paraformaldehyde. Immunohistochemical staining was performed on formalin-fixed paraffin-embedded sections. Sections from brain were cut, deparaffinized in xylene and rehydrated in graded alcohols. The slides were boiled in 10 mM citric acid (pH 6.0) for 10 minutes followed by an incubation in 2 N HCl for 10 minutes in room temperature. The slides were then permeabilized and blocked with 1% BSA in 0.2% PBST. The incorporated BrdU were stained using anti-BrdU-FITC (Abcam, Inc; Cambridge, Mass.) at 4° C. for 16 hours. After three washes in PBS, the cells were stained with DAPI for another 10 minutes at room temperature. The slides were mounted with AquaMount (Lerner Laboratories; Pittsburgh, Pa.) containing 0.01% 1,4-diazobicyclo(2,2,2)octane and examined under a fluorescence microscope.
# To test whether increasing TrkB activation by 4′-dimethylamino-7,8-dihydroxyflavone would elevate neurogenesis, adult male C57BL/6J mice were injected daily for 21 days with either vehicle, 7,8-DHF, or 4′-DMA-7,8-DHF (5 mg/kg). At the end of treatment (day 21), the animals were injected with BrdU (50 mg/kg, i.p.) to label the dividing cells and were sacrificed 2 hours later. […]
# TrkA = TrkA (Mus musculus, UniProt Q3UFB7); assay: TrkA phosphorylation in mouse brain after intraperitoneal injection; format: in vivo, mice; design: from tissue; host or cells: mouse brain; conditions: 5 mg/kg intraperitoneally, 2 hours after injection, FIG. 12
# Chain of TrkA (Q3UFB7 34-799): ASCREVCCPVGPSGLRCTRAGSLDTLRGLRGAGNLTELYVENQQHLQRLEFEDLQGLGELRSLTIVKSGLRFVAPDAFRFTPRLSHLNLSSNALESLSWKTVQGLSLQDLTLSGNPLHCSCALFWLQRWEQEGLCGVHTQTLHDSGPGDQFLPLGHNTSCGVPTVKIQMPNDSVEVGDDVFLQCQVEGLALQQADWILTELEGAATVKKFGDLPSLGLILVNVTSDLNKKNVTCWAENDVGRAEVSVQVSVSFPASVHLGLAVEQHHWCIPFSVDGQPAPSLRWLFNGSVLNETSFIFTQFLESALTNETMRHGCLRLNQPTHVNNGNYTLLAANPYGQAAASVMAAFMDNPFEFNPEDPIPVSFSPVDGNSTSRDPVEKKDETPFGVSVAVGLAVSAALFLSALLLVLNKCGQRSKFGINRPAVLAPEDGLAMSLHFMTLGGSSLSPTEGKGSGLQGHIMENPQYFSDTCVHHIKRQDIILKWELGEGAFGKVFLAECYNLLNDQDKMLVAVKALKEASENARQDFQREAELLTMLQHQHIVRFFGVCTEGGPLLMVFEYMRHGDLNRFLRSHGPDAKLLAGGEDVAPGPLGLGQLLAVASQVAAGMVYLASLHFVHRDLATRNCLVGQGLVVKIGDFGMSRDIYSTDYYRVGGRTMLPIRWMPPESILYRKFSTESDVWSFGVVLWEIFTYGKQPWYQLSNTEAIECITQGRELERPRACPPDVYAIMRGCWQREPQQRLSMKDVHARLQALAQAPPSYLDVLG
# Protocol: To assess whether 7,8-dihydroxyflavone can provoke TrkB activation in the brain, mice were intraperitoneally injected with a dose of 5 mg/kg and analyzed at various time points. […] Further, as shown in FIG. 12 (right panel), the protein and mRNA levels of the neurotrophic receptors were not altered after treatment with 7,8-dihydroxyflavone.
# Caspase-3 activation = assay: Glutamate-provoked Caspase-3 activation in wild-type and TrkB-/- cortical neurons; format: cell-based, mice; conditions: FIG. 21
# Protocol: To determine whether 7,8-dihydroxyflavone can selectively activate TrkB receptor and prevent neuronal cell death, cortical neurons were prepared from homozygous pups of TrkB+/−mice, which were mated to the same genotype. […] Glutamate nonselectively elicited weak TrkA phosphorylation in both wild-type and TrkB-null neurons (FIG. 21, row 3).
compound,measurement,setting,value
"O=c1cc(-c2ccccc2)oc2c(O)c(O)ccc12 [7,8-dihydroxyflavone]",toxicity to the mice,[1]; 5 mg/kg/day dose for 3-week chronic treatment,neither compound was toxic
same,complete blood count (CBC) versus control saline-treated mice,"[1]; mouse, in vivo",no significant difference
same,KA-provoked apoptosis,KA-provoked apoptosis; 5 mg/kg intraperitoneally 4 hours prior to KA (25 mg/kg),suppressed KA-provoked apoptosis
same,protective effect against KA after 1NMPP1 pretreatment,KA-provoked apoptosis; 1NMPP1 in drinking water one day prior,abolished
same,"apoptosis in TrkB F616A mice, treatment alone without KA",KA-provoked apoptosis; FIG. 24,no effect on apoptosis
same,concentration of eluted compound as GST-TrkB ICD volumes increased,GST-TrkB ICD,remained constant
same,TrkB tyrosine phosphorylation (immunofluorescence),TrkB,provoked TrkB tyrosine phosphorylation similar to BDNF
same,KA-induced caspase-3 activation at 4 h,[2],reduced
same,active caspase-3 at 8 h,[2],slightly increased
same,neurogenesis (BrdU),[3],increased neurogenesis
same,TrkA phosphorylation in the brain,TrkA,not TrkA
same,survival of ischemic insult and treatment,infarct volume; 5 mg/kg intraperitoneally,All animals included in the study survived
same,infarct volumes,"infarct volume; 5 mg/kg intraperitoneally 5 minutes prior to reperfusion, TTC 24 hours after MCAO, FIG. 20",reduced infarct volumes
same,Glutamate-provoked Caspase-3 activation in TrkB-/- neurons,Caspase-3 activation,not
same,Glutamate-provoked Caspase-3 activation in wild-type neurons,Caspase-3 activation,substantially blocked

# From US9895344B2, “Treating various disorders with 7,8-dihydroxyflavone and derivatives thereof” (EMORY UNIVERSITY, priority 2008, dated 2018)
